In the NIST ThermoML archive (doi:10.1021/je100068y):
“And” between values parts separate entries of the source, which are not always exact repeats. Identical values can stand only once. ± gives the expanded uncertainty stated by the source.

Assays:
[1] = mn = molality of the nth substance listed, in mol/kg; conditions: 101.33 kPa, Liquid, m1 = 0.05
[2] = cn = amount concentration of the nth substance listed, in mol/dm3; conditions: 101.33 kPa, Liquid, Alternating current cell with electrodes

CCCCCCCCCCCCOS(=O)(=O)[O-].[Na+] [sodium dodecyl sulfate] + O
[1]
Conditions	mass density
298.15 K	999.198 ± 0.14 kg/m3 and 999.155 ± 0.23 kg/m3
303.15 K	997.657 ± 0.14 kg/m3 and 997.661 ± 0.23 kg/m3
308.15 K	995.989 ± 0.14 kg/m3 and 995.962 ± 0.24 kg/m3
313.15 K	994.178 ± 0.14 kg/m3 and 994.186 ± 0.24 kg/m3

electrical conductivity [S/m], [2]
Conditions	288.15 K	293.15 K	298.15 K	303.15 K	308.15 K
c1 = 0.003022	0.0165 ± 0.00027	0.0184 ± 0.00031	0.0207 ± 0.00034	0.0234 ± 0.00038	0.0258 ± 0.00042
c1 = 0.004552	0.0247 ± 0.00033	0.0279 ± 0.00037	0.0313 ± 0.00042	0.0349 ± 0.00046	0.0386 ± 0.00051
c1 = 0.005661	0.0304 ± 0.00037	0.0344 ± 0.00042	0.0388 ± 0.00047	0.0431 ± 0.00052	0.0477 ± 0.00058
c1 = 0.006744	0.0361 ± 0.00042	0.0408 ± 0.00047	0.0458 ± 0.00053	0.051 ± 0.00059	0.0564 ± 0.00065
c1 = 0.007679	0.0408 ± 0.00044	0.0461 ± 0.0005	0.0517 ± 0.00056	0.0577 ± 0.00063	0.0638 ± 0.0007
c1 = 0.008765	0.0447 ± 0.00047	0.0502 ± 0.00052	0.0565 ± 0.00059	0.0632 ± 0.00065	0.0704 ± 0.00073
c1 = 0.009933	0.0474 ± 0.00048	0.0532 ± 0.00054	0.06 ± 0.00061	0.0671 ± 0.00069	0.0751 ± 0.00077
c1 = 0.0111	0.0497 ± 0.00051	0.0559 ± 0.00057	0.0632 ± 0.00064	0.0708 ± 0.00072	0.0793 ± 0.00081
c1 = 0.01221	0.0518 ± 0.00053	0.0584 ± 0.00059	0.0661 ± 0.00067	0.074 ± 0.00075	0.083 ± 0.00084
c1 = 0.01335	0.0538 ± 0.00055	0.0609 ± 0.00062	0.0688 ± 0.0007	0.0774 ± 0.00079	0.0869 ± 0.00088
c1 = 0.01444	0.0558 ± 0.00057	0.0632 ± 0.00064	0.0715 ± 0.00072	0.0805 ± 0.00082	0.0904 ± 0.00092
c1 = 0.0156	0.058 ± 0.00059	0.0657 ± 0.00067	0.0745 ± 0.00076	0.084 ± 0.00085	0.0944 ± 0.00096
c1 = 0.01674	0.0601 ± 0.00061	0.0683 ± 0.00069	0.0775 ± 0.00079	0.0873 ± 0.00089	0.098 ± 0.00099
